Experimental data reported in article PMC11396751, “Design, Synthesis, and Anticancer Activity of Novel Enmein-Type Diterpenoid Derivatives Targeting the PI3K/Akt/mTOR Signaling Pathway” (Molecules, 2024).

Legend:
[1] = tested on: L-02 cells; test: MTT anti-proliferative assay, normal L-02 cells; assay type: cell-based; conditions: Homo sapiens, L02, 48 h, means ± SD of three experiments
Description: (§1) A series of novel enmein-type diterpenoid derivatives, 5a–m, were synthesized by introducing a side chain containing a carbamate moiety at the C-6 position of compound 4. The anticancer activities of 5a–m were tested against three human cancer cell lines and one human normal cell line by MTT assay.
(§2) Human non-small cell lung cancer cell lines (A549), human liver cancer cell lines (HepG2), human breast cancer cell lines (MCF-7), and human normal cell lines (L-02) were purchased from the cell bank of the Chinese Academy of Sciences. All cells were placed in RPMI-1640 medium (added 10% fetal bovine serum, […]) and cultured in an aseptic environment with 5% CO2 at 37 °C.
(§3) All derivatives were evaluated for their anti-proliferative activities against three cancer cell lines and one normal cell line by MTT assay. The cells in the logarithmic growth phase were inoculated into 96-well plates (3 × 10^3 cells/well) and incubated for 48 h in a sterile environment with 5% CO2 at 37 °C to make them attach via cell adhesion; then, the cells were co-incubated with target compounds for 48 h. After that, MTT solution (10 µL/well) was added to the cell culture medium to continue incubation for 4 h, following which the medium was replaced with DMSO (150 µL/well). The absorbance values at 490 nm were determined using an enzyme meter (Safire 2, Tecan, Männedorf, Switzerland) and further converted to half-inhibitory concentration values of these compounds.

[2] = tested on: HepG2 cells; test: MTT anti-proliferative assay, HepG2; assay type: cell-based, human; conditions: for IC50: Homo sapiens, HepG2, MTT, 48 h, means ± SD of three experiments
Description: as §1, §2, §3

[3] = tested on: A549 cells; test: MTT anti-proliferative assay, A549; assay type: cell-based, human; conditions: Homo sapiens, A549; MTT, 48 h; means ± SD of three experiments
Description: as §1, §2, §3

[4] = tested on: MCF-7 cells; test: MTT anti-proliferative assay, MCF-7; assay type: cell-based; conditions: Homo sapiens, MCF7, 48 h, means ± SD of three experiments
Description: as §1, §2, §3

[5] = tested on: HL60; set-up: method as in PMID 20183309, PMID 26757019, doi:10.1016/j.tetlet.2007.10.133, PMID 19431012; conditions: Figure 1; cited from earlier work
[6] = tested on: HeLa; set-up: method as in PMID 20183309, PMID 26757019, doi:10.1016/j.tetlet.2007.10.133, PMID 19431012; conditions: Figure 1; cited from earlier work
[7] = tested on: A549; set-up: method as in PMID 20183309, PMID 26757019, doi:10.1016/j.tetlet.2007.10.133, PMID 19431012; conditions: Figure 1; cited from earlier work
[8] = tested on: MCF-7; set-up: method as in PMID 20183309, PMID 26757019, doi:10.1016/j.tetlet.2007.10.133, PMID 19431012; conditions: Figure 1; cited from earlier work

For `C=C1C(=O)C23C(=O)OC45CCC(C)(C)C6C(OC(=O)CCC(=O)NCc7ccc(Br)cc7)OCC64C2CCC1C3O5` (single isomer, unassigned; ent-6) [Compound 7g, ent-6β,14α-Dihydroxy-(1,7–1,14)-epoxy-7,15-dioxo-6,20-hemiketal-6,7-seco-16-kaurene-6β-yl 4-((4-bromobenzyl)amino)-4-oxobutanoate], the IC50 [1] was > 50 µM, the “anticancer activity in words, HepG2” value ([2]; HepG2 cells) was “low micro-molar-level anticancer activities” and the IC50 [2] was 8.78 ± 1.46 µM. For the same molecule, the IC50 [3] was 8.6 ± 2.65 µM and the IC50 [4] was 13 ± 1.52 µM.
For `C=C1C(=O)C23CC1CCC2C12COC(O)C1C(C)(C)CCC2OC3=O` (stereo not drawn) [Isodocarpin], the IC50 [5] is listed as 0.57 µM and the IC50 [6] is listed as 4.01 µM.
In the case of `C=C1C(=O)[C@]23[C@H](O)[C@H]1CC[C@H]2[C@@]12CO[C@]3(O)[C@@H](O)[C@@H]1C(C)(C)CC[C@@H]2O` [Oridonin, reference compound], the IC50 [1] is reported as 23.6 ± 1.65 µM, the IC50 [2] is reported as 22.6 ± 1.2 µM and the IC50 [3] is reported as 21.1 ± 1.58 µM. The IC50 [4] was 18.5 ± 1.37 µM.
For `C=C1C(=O)[C@]23C[C@H]1C[C@H](O)C2[C@@]12CO[C@@H](OC)C1C(C)(C)CC[C@@H]2OC3=O` (stereo partly drawn) [Rabdosin A], the IC50 [7] is given as 3.53 µM, the IC50 [5] is given as 2.11 µM and the IC50 [8] is given as 2.82 µM.
`CC(=O)O[C@H]1C(=O)[C@@]2(C)[C@H]([C@H](OC(=O)c3ccccc3)[C@]3(O)C[C@H](OC(=O)[C@H](O)[C@@H](NC(=O)c4ccccc4)c4ccccc4)C(C)=C1C3(C)C)[C@]1(OC(C)=O)CO[C@@H]1C[C@@H]2O` [Taxol, reference compound] gave an IC50 [1] of 8.31 ± 1.82 µM, an IC50 [2] of 6.6 ± 1.61 µM and an IC50 [3] of 4.21 ± 0.73 µM. The IC50 [4] was 5.15 ± 0.8 µM.
